# Test results published in patent US20200078379A1, “DEFEROXAMINE DERIVATIVES AS MEDICAMENTS” (BIOTECHNOLOGICKY USTAV AV CR, V.V.I., priority 2017, published 2020).
# Like-named read-outs stand apart in the source and are kept apart here.
# Legend:
# [1] = system: SK-OV-3 cells; assay: crystal violet assay, cellular viability; assay type: cell-based; details: Homo sapiens, SK-OV-3, 48 hours
# [2] = system: MCF7 cells; assay: individual cell movement, Juli FL and Image J; assay type: cell-based, human
# Method: Additionally, cells seeded identically as in example 26, were treated with 1 to 5 μM concentrations of compound 2 and movie was recorded via the Juli FL system, enabling monitoring of individual movement of cells. The movement was then analyzed by the Image J program to gain the average travelled distance within a specified time. We detected a significant reduction of the total length of travelled trajectory when cells were exposed to compound 2 (Table 12)
# [3] = system: murine triple negative breast cancer cells line 4T1; assay: tumor growth in vivo, 4T1 model; design: species or system Balb/c gamma mice; details: for Relative tumor size: 4T1, 8 mg/kg i.p. twice per week
# Method: (§1) In order to define the effect of compound 2 on tumor growth and progression in vivo, we tested its effect on the model of syngeneic murine triple negative breast cancer cells line 4T1, Balb/c gamma mice being the immune deficient host. Mice were injected with 1 million of cells s.c. on the right flank. After appearance of tumors (15-60 mm^3) mice were randomized into two separate group, one receiving corn oil (control) and one receiving compound 2 at 8 mg/kg. Tumor progression was then monitored by ultrasound imaging Vevo770 and mice received the treatment twice per week, i.p. in approximately 100 ul of corn oil.
# [4] = system: BT474 cells; assay: AnnexinV/PI cell death assay; assay type: cell-based; details: 48 hrs
# Method: (§2) To confirm such findings by an independent method, cell death-inducing potency (cytotoxic efficacy) of DFO and compound 2 have been tested via annexin V/PI staining commonly used as a measure of apoptotic/necrotic cell death. Briefly, cells were seeded in 12-well plate at 100,000 per well, incubated with the selected compounds for 48 hours, then floating cells were spun, adherent cells trypsinized and spun as well followed by the staining with AnnexinV-FITC and PI probes. Cells were then washed with PBS and measured via Fluorescence Activated Sorter.
# [5] = system: BT549 cells; assay: AnnexinV/PI cell death assay; assay type: cell-based; details: 48 hrs
# Method: as §2
# [6] = system: NIH:OVCAR-3 cells; assay: crystal violet assay, cellular viability; assay type: cell-based; details: Homo sapiens, NIH:OVCAR-3, 48 hours
# [7] = system: MCF7 cells; assay: cellular proliferation in real time, Xcelligence technology; assay type: cell-based
# Method: The ability of compound 2 to affect the proliferation and cell death induction in real time was monitored by the Xcelligence technology that detects changes in electrical impedance related to the cell number. In brief, special 16-well e-plates containing gold electrodes were filled with medium, blank values were recorded, and then 5.000 cells per well were seeded in the plate and let to attach for 2 hours, followed by the addition of compounds. The electrical impedance was then monitored over time in real-time every 15 minutes. In this case a line is drawn that reflects the cell number over time. […] We have seen a clear inhibition of proliferation with compound 2 at 1 μM, complete block of proliferation at 2 μM concentration, while the cytotoxic effect is seen at 5 μM (Table 9).
# [8] = system: MDA-MB-231 cells; assay: crystal violet assay, cellular viability; assay type: cell-based, human
# Method: (§3) Compound 1 and compound 2 were tested in their efficacy to kill malignant MCF7 cancer cells. Briefly, 10.000 cells per well were seeded in a 96-well plat on one day and the next day selected compounds were added and incubated with the cells for 48 hrs. The cells were then fixed with 4% paraformaldehyde, stained with 0.05% crystal violet, washed with PBS, and solubilized in 1% SDS. The absorbance of the plate at 595 nm was then measured, quantifying the number of viable cells.
# (§4) A number of compounds of the present invention were tested for cytotoxicity towards at least some of human breast cancer cell lines (MCF7, MDA-MB-231), human fibroblast (BJ) and murine triple negative breast cancer cell line 4T1 (Table 2).
# [9] = system: MCF7 cells; assay: crystal violet assay, cellular viability; assay type: cell-based, human
# Method: as §3, §4
# [10] = system: human triple negative breast cancer cells line MDA-MB-231; assay: tumor growth in vivo, MDA-MB-231 model; design: species or system NOD-SCID gamma mice; details: for Relative tumor size: MDA-MB-231, 8 mg/kg i.p. twice per week
# Method: as §1, with “of human” for “of syngeneic murine”, “line MDA-MB-231, NOD-SCID” for “line 4T1, Balb/c”, “the immunodeficient” for “the immune deficient”, “into three” for “into two”, “and two” for “and one receiving”, “2 in a dose of 1 mg/kg or” for “2 at”
# [11] = system: non malignant cells (BJ); assay: AnnexinV/PI cell death assay; assay type: cell-based; details: for mean percentage of dead cells (AnnexinV/PI): 48 hrs
# Method: as §2
# We have then analyzed the percentage of death cells by the annexinV/PI staining as described in example 7. We have observed a significant potentiation in cell death induction when gallium was combined with compound 2 (Table 14)
# [12] = system: T47D cells; assay: AnnexinV/PI cell death assay; assay type: cell-based; details: 48 hrs
# Method: as §2
# Since compound 2 is an iron chelator, we have evaluated the effect of pretreating compound 2 with iron. at a 1:1 ratio by using the Annexin V/PI staining as in example 7.
compound,measurement,setting,value
"CC(=O)N(O)CCCCCNC(=O)CCC(=O)N(O)CCCCCNC(=O)CCC(=O)N(O)CCCCCN(CCCCCCCCCC[P+](c1ccccc1)(c1ccccc1)c1ccccc1)CCCCCCCCCC[P+](c1ccccc1)(c1ccccc1)c1ccccc1.[Cl-].[Cl-] [Compound 2, Triphenyl(3,14,25-trihydroxy-2,10,13,21,24-pentaoxo-31-(10-(triphenylphosphonio)decyl)-3,9,14,20,25,31-hexaazahentetracontan-41-yl)phosphonium chloride]",IC50,[1],5.1 µM
same,speed of the movement,"[2]; MCF7, 1 μM",0.16 (0.06) μm*min^−1
same,travelled distance of an individual cell between frames,"[2]; MCF7, 1 μM",4.4 (1.4) μm
same,speed of the movement,"[2]; MCF7, 2 μM",0.13 (0.05) μm*min^−1
same,travelled distance of an individual cell between frames,"[2]; MCF7, 2 μM",3.9 (1.5) μm
same,speed of the movement,"[2]; MCF7, 5 μM",0.12 (0.07) μm*min^−1
same,travelled distance of an individual cell between frames,"[2]; MCF7, 5 μM",3.1 (0.7) μm
same,"effect on relative tumor growth, in words","[3]; 4T1, 8 mg/kg",significantly reduces relative tumor growth
same,Relative tumor size,[3]; Day 0,1.0
same,Relative tumor size,[3]; Day 4,1.3
same,Relative tumor size,[3]; Day 7,1.1
same,Relative tumor size,[3]; Day 11,1.4
same,Relative tumor size,[3]; Day 14,1.6
same,Relative tumor size,[3]; Day 18,2.5
same,mean percentage of dead cells (AnnexinV/PI),"[4]; BT474, 5 μM",18.6%
same,mean percentage of dead cells (AnnexinV/PI),"[4]; BT474, 10 μM",39.9%
same,mean percentage of dead cells (AnnexinV/PI),"[4]; BT474, 20 μM",92.5%
same,mean percentage of dead cells (AnnexinV/PI),"[5]; BT549, 5 μM",31.8%
same,mean percentage of dead cells (AnnexinV/PI),"[5]; BT549, 10 μM",52.3%
same,mean percentage of dead cells (AnnexinV/PI),"[5]; BT549, 20 μM",80.4%
same,IC50,[6],3.7 µM
same,slope of the line (relative number of cells in relation to time),"[7]; MCF7, 0-15 h, 1 μM",0.32
same,slope of the line (relative number of cells in relation to time),"[7]; MCF7, 0-15 h, 2 μM",0.40
same,slope of the line (relative number of cells in relation to time),"[7]; MCF7, 0-15 h, 5 μM",0.31
same,slope of the line (relative number of cells in relation to time),"[7]; MCF7, 0-36 h, 1 μM",0.35
same,slope of the line (relative number of cells in relation to time),"[7]; MCF7, 0-36 h, 2 μM",−0.01
same,slope of the line (relative number of cells in relation to time),"[7]; MCF7, 0-36 h, 5 μM",−0.47
same,concentration at which the cytotoxic effect is seen,"[7]; Xcelligence, MCF7",5 µM
same,concentration with clear inhibition of proliferation,"[7]; Xcelligence, MCF7",1 µM
same,concentration with complete block of proliferation,"[7]; Xcelligence, MCF7",2 µM
same,Selectivity index (IC50 non-malignant/IC50 malignant),"[8]; BJ vs MDA-MB-231, 48 hours",2.64
same,IC50,"[8]; Homo sapiens, MDA-MB-231, 48 h, read-out: IC50 cellular viability",5.4 µM
same,Selectivity index (IC50 non-malignant/IC50 malignant),"[9]; BJ vs MCF7, 48 hours",12.43
same,IC50,"[9]; Homo sapiens, MCF7, 48 h, crystal violet, read-out: IC50 cellular viability",1.2 µM
same,IC50,"[9]; Homo sapiens, MCF7, MCF7 Parental, read-out: IC50 crystal violet",1.5 µM
same,viability at 1 µM,"[9]; Homo sapiens, MCF7, 1 μM, 48 hrs, crystal violet, read-out: mean percentage of viable cells compared to non-treated controls",56.9%
same,viability at 2 µM,"[9]; Homo sapiens, MCF7, 2 μM, 48 hrs, crystal violet, read-out: mean percentage of viable cells compared to non-treated controls",20%
same,viability at 5 µM,"[9]; Homo sapiens, MCF7, 5 μM, 48 hrs, crystal violet, read-out: mean percentage of viable cells compared to non-treated controls",10%
same,viability at 10 µM,"[9]; Homo sapiens, MCF7, 10 μM, 48 hrs, crystal violet, read-out: mean percentage of viable cells compared to non-treated controls",12.1%
same,"effect on relative tumor growth, in words","[10]; MDA-MB-231, 8 mg/kg",significantly reduces relative tumor growth
same,Relative tumor size,[10]; Day 0,1.0
same,Relative tumor size,[10]; Day 4,1.3
same,Relative tumor size,[10]; Day 7,1.8
same,Relative tumor size,[10]; Day 11,2.6
same,Relative tumor size,[10]; Day 14,3.5
same,Relative tumor size,[10]; Day 18,5.3
same,Relative tumor size,[10]; Day 21,7.9
same,mean percentage of dead cells (AnnexinV/PI),[11]; 5 μM,6.7%
same,mean percentage of dead cells (AnnexinV/PI),[11]; 10 μM,9.0%
same,mean percentage of dead cells (AnnexinV/PI),[11]; 20 μM,29.8%
same,concentrations at which toxic effect could be detected in non-malignant BJ cells,"[11]; AnnexinV/PI, 48 hours",higher than 2004
same,percentage of death cells by annexinV/PI staining,"[11]; ratio Ga:compound 2 0:1, 10 μM compound 2 alone",9.0 (3.5)
same,mean percentage of dead cells (AnnexinV/PI),[12]; 5 μM,38.3 (5.8) %
same,mean percentage of dead cells (AnnexinV/PI),[12]; 10 μM,41.2 (3.1) %
same,mean percentage of dead cells (AnnexinV/PI),[12]; 20 μM,93.6 (1.3) %
